# Target: human LPAR1 (Homo sapiens (Human), UniProt Q92633)
# Experiment: LPAR1 intracellular calcium mobilization assay (antagonist mode, FLIPR)
# Assay type: cell-based
# Conditions: CHO-K1 EDG2 cells expressing human LPAR1, LPA 18:2 at EC80 (100 nM), test compound 0.5 nM to 10 μM
# Chain of human LPAR1 (Q92633 whole entry): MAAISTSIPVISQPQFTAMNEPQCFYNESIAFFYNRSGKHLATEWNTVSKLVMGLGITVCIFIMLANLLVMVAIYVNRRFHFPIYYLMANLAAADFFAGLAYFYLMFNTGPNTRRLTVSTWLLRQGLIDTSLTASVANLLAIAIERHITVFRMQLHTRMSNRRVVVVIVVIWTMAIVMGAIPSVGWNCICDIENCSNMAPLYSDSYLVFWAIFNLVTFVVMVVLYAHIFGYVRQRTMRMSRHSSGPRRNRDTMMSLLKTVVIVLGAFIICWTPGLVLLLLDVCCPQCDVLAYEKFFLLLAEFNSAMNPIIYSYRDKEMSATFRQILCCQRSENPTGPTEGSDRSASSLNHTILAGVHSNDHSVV
row,Compound,EC50 [nM]
1,"C[C@@H](OC(=O)Nc1c(-c2ccc(NC(=O)[C@H]3C[C@H](O)C3)cn2)nnn1C)c1cccnc1Cl [Compound 154, (R)-1-(2-chloropyridin-3-yl)ethyl (4-(5-((1r,3R)-3-hydroxycyclobutane-1-carboxamido)pyridin-2-yl)-1-methyl-1H-1,2,3-triazol-5-yl)carbamate]",668
2,"C[C@@H](OC(=O)Nc1c(-c2ccc(NC(=O)[C@@H]3C[C@@H]3C#N)cn2)nnn1C)c1cccnc1Cl [Compound 137, (R)-1-(2-chloropyridin-3-yl)ethyl (4-(5-((1R,2S)-2-cyanocyclopropane-1-carboxamido)pyridin-2-yl)-1-methyl-1H-1,2,3-triazol-5-yl)carbamate]",1090
3,"Cc1ncc(F)cc1[C@@H](C)OC(=O)Nc1c(-c2ccc(NC(=O)C34CC(F)(C3)C4)cn2)nnn1C [Compound 179, (R)-1-(5-fluoro-2-methylpyridin-3-yl)ethyl (4-(5-(3-fluorobicyclo[1.1.1]pentane-1-carboxamido)pyridin-2-yl)-1-methyl-1H-1,2,3-triazol-5-yl)carbamate]",46.5
4,"Cc1ncc(F)cc1[C@@H](C)OC(=O)Nc1c(-c2ccc(NC(=O)[C@@H]3C[C@H]3F)cn2)nnn1C [Compound 176, (R)-1-(5-fluoro-2-methylpyridin-3-yl)ethyl (4-(5-((1S,2R)-2-fluorocyclopropane-1-carboxamido)pyridin-2-yl)-1-methyl-1H-1,2,3-triazol-5-yl)carbamate]",253
5,"C[C@@H](OC(=O)Nc1c(-c2cnc(NC(=O)c3cnc(C(F)F)nc3)cn2)nnn1C)c1cccnc1F [Compound 327, (R)-1-(2-fluoropyridin-3-yl)ethyl (4-(5-(2-(difluoromethyl)pyrimidine-5-carboxamido)pyrazin-2-yl)-1-methyl-1H-1,2,3-triazol-5-yl)carbamate]",255
6,"COc1cc(C(=O)Nc2ccc(-c3nnn(C)c3NC(=O)O[C@H](C)c3cc(F)cnc3F)nc2)ccn1 [Compound 223, (R)-1-(2,5-difluoropyridin-3-yl)ethyl (4-(5-(2-methoxyisonicotinamido)pyridin-2-yl)-1-methyl-1H-1,2,3-triazol-5-yl)carbamate]",118
7,"C[C@@H](OC(=O)Nc1c(-c2ccc(NC(=O)C3(C)CC(F)(F)C3)cn2)nnn1C)c1cccnc1Cl [Compound 144, (R)-1-(2-chloropyridin-3-yl)ethyl (4-(5-(3,3-difluoro-1-methylcyclobutane-1-carboxamido)pyridin-2-yl)-1-methyl-1H-1,2,3-triazol-5-yl)carbamate]",36.1
8,"C[C@@H](OC(=O)Nc1c(-c2ccc(NC(=O)C3(F)CC3)cn2)nnn1C)c1cccnc1Cl [Compound 60, (R)-1-(2-chloropyridin-3-yl)ethyl (4-(5-(1-fluorocyclopropane-1-carboxamido)pyridin-2-yl)-1-methyl-1H-1,2,3-triazol-5-yl)carbamate]",140
9,"C[C@@H](OC(=O)Nc1c(-c2ccc(NC(=O)[C@]3(C)C[C@@H](C#N)C3)cn2)nnn1C)c1cccnc1Cl [Compound 122, (R)-1-(2-chloropyridin-3-yl)ethyl (4-(5-((1r,3R)-3-cyano-1-methylcyclobutane-1-carboxamido)pyridin-2-yl)-1-methyl-1H-1,2,3-triazol-5-yl)carbamate]",123
10,"C[C@@H](OC(=O)Nc1c(-c2ccc(NC(=O)c3ccc(Cl)nn3)cn2)nnn1C)c1cc(F)cnc1F [Compound 250, (R)-1-(2,5-difluoropyridin-3-yl)ethyl (4-(5-(6-chloropyridazine-3-carboxamido)pyridin-2-yl)-1-methyl-1H-1,2,3-triazol-5-yl)carbamate]",276
11,"COC(=O)Nc1ccc(-c2nnn(C)c2NC(=O)O[C@H](C)c2cccnc2Cl)nc1 [Compound 17, (R)-1-(2-chloropyridin-3-yl)ethyl (4-(5-((methoxycarbonyl)amino)pyridin-2-yl)-1-methyl-1H-1,2,3-triazol-5-yl)carbamate]",29.3
12,"C[C@@H](OC(=O)Nc1c(-c2ccc(NC(=O)C3(C#N)CC3C(F)(F)F)cn2)nnn1C)c1cccnc1Cl (stereo partly drawn) [Compound 147, (R)-1-(2-chloropyridin-3-yl)ethyl (4-(5-(1-cyano-2-(trifluoromethyl)cyclopropane-1-carboxamido)pyridin-2-yl)-1-methyl-1H-1,2,3-triazol-5-yl)carbamate]",33.9
13,"C[C@@H](OC(=O)Nc1c(-c2ccc(NC(=O)C3(C#N)CCOCC3)cn2)nnn1C)c1cccnc1Cl [Compound 95, (R)-1-(2-chloropyridin-3-yl)ethyl (4-(5-(4-cyanotetrahydro-2H-pyran-4-carboxamido)pyridin-2-yl)-1-methyl-1H-1,2,3-triazol-5-yl)carbamate]",309
14,"C[C@@H](OC(=O)Nc1c(-c2ccc(NC(=O)[C@@H]3CC3(F)F)cn2)nnn1C)c1cc(F)cnc1F [Compound 164, (R)-1-(2,5-difluoropyridin-3-yl)ethyl (4-(5-((S)-2,2-difluorocyclopropane-1-carboxamido)pyridin-2-yl)-1-methyl-1H-1,2,3-triazol-5-yl)carbamate]",245
15,"C[C@@H](OC(=O)Nc1c(-c2ccc(NC(=O)C3(C#N)CC(O)C3)cn2)nnn1C)c1cccnc1Cl (stereo partly drawn) [Compound 135, (R)-1-(2-chloropyridin-3-yl)ethyl (4-(5-(1-cyano-3-hydroxycyclobutane-1-carboxamido)pyridin-2-yl)-1-methyl-1H-1,2,3-triazol-5-yl)carbamate]",726
16,"C[C@@H](OC(=O)Nc1c(-c2ccc(NC(=O)c3ccnc(Cl)c3)cn2)nnn1C)c1cccnc1Cl [Compound 103, (R)-1-(2-chloropyridin-3-yl)ethyl (4-(5-(2-chloroisonicotinamido)pyridin-2-yl)-1-methyl-1H-1,2,3-triazol-5-yl)carbamate]",16.6
17,"C[C@@H](OC(=O)Nc1c(-c2ccc(NC(=O)C3(CN)CC(F)(F)C3)cn2)nnn1C)c1cc(F)cnc1F [Compound 301, (R)-1-(2,5-difluoropyridin-3-yl)ethyl (4-(5-(1-(aminomethyl)-3,3-difluorocyclobutane-1-carboxamido)pyridin-2-yl)-1-methyl-1H-1,2,3-triazol-5-yl)carbamate]",66.9
18,"C[C@@H](OC(=O)Nc1c(-c2ccc(NC(=O)c3ccc4ncn(C)c4c3)cn2)nnn1C)c1cc(F)cnc1F [Compound 274, (R)-1-(2,5-difluoropyridin-3-yl)ethyl (1-methyl-4-(5-(1-methyl-1H-benzo[d]imidazole-6-carboxamido)pyridin-2-yl)-1H-1,2,3-triazol-5-yl)carbamate]",403
19,"C[C@@H](OC(=O)Nc1c(-c2ccc(NC(=O)[C@@H]3C[C@H]3c3ccccn3)cn2)nnn1C)c1cc(F)cnc1F [Compound 265, (R)-1-(2,5-difluoropyridin-3-yl)ethyl (1-methyl-4-(5-((1R,2R)-2-(pyridin-2-yl)cyclopropane-1-carboxamido)pyridin-2-yl)-1H-1,2,3-triazol-5-yl)carbamate]",19.5
20,"C[C@@H](OC(=O)Nc1c(-c2ccc(NC(=O)C3(C#N)CC(=O)C3)cn2)nnn1C)c1cccnc1Cl [Compound 141, (R)-1-(2-chloropyridin-3-yl)ethyl (4-(5-(1-cyano-3-oxocyclobutane-1-carboxamido)pyridin-2-yl)-1-methyl-1H-1,2,3-triazol-5-yl)carbamate]",459
21,"C[C@@H](OC(=O)Nc1c(-c2ccc(NC(=O)[C@@]3(C#N)C[C@@H]3F)cn2)nnn1C)c1cc(F)cnc1F [Compound 270, (R)-1-(2,5-difluoropyridin-3-yl)ethyl (4-(5-((1S,2S)-1-cyano-2-fluorocyclopropane-1-carboxamido)pyridin-2-yl)-1-methyl-1H-1,2,3-triazol-5-yl)carbamate]",168
22,"C[C@@H](OC(=O)Nc1c(-c2ccc(NC(=O)c3cccc(C#N)n3)cn2)nnn1C)c1cccnc1Cl [Compound 98, (R)-1-(2-chloropyridin-3-yl)ethyl (4-(5-(6-cyanopicolinamido)pyridin-2-yl)-1-methyl-1H-1,2,3-triazol-5-yl)carbamate]",720
23,"C[C@@H](OC(=O)Nc1c(-c2ccc(NC(=O)C3C(F)(F)C34CC4)cn2)nnn1C)c1cccnc1Cl (stereo partly drawn) [Compound 199, (R)-1-(2-chloropyridin-3-yl)ethyl (4-(5-(2,2-difluorospiro[2.2]pentane-1-carboxamido)pyridin-2-yl)-1-methyl-1H-1,2,3-triazol-5-yl)carbamate]",65.7
24,"C[C@@H](OC(=O)Nc1c(-c2ccc(NC(=O)[C@@H]3CNC(=O)C3)cn2)nnn1C)c1cccnc1Cl [Compound 150, (R)-1-(2-chloropyridin-3-yl)ethyl (1-methyl-4-(5-((S)-5-oxopyrrolidine-3-carboxamido)pyridin-2-yl)-1H-1,2,3-triazol-5-yl)carbamate]",880
25,"C[C@@H](OC(=O)Nc1c(-c2ccc(NC(=O)c3cnc(C(F)F)nc3)cn2)nnn1C)c1cc(F)cnc1F [Compound 252, (R)-1-(2,5-difluoropyridin-3-yl)ethyl (4-(5-(2-(difluoromethyl)pyrimidine-5-carboxamido)pyridin-2-yl)-1-methyl-1H-1,2,3-triazol-5-yl)carbamate]",73.5
26,"C[C@@H](OC(=O)Nc1c(-c2ccc(NC(=O)C3C4CCOC43)cn2)nnn1C)c1cccnc1Cl (stereo partly drawn) [Compound 159, (R)-1-(2-chloropyridin-3-yl)ethyl (4-(5-(2-oxabicyclo[3.1.0]hexane-6-carboxamido)pyridin-2-yl)-1-methyl-1H-1,2,3-triazol-5-yl)carbamate]",394
27,"C[C@@H](OC(=O)Nc1c(-c2ccc(NC(=O)C3(C)CS(=O)(=O)C3)cn2)nnn1C)c1cc(F)cnc1F [Compound 228, (R)-1-(2,5-difluoropyridin-3-yl)ethyl (1-methyl-4-(5-(3-methyl-1,1-dioxidothietane-3-carboxamido)pyridin-2-yl)-1H-1,2,3-triazol-5-yl)carbamate]",403
28,"C[C@@H](OC(=O)Nc1c(-c2ccc(NC(=O)[C@@H]3CCC(=O)N3)cn2)nnn1C)c1cccnc1Cl [Compound 151, (R)-1-(2-chloropyridin-3-yl)ethyl (1-methyl-4-(5-((S)-5-oxopyrrolidine-2-carboxamido)pyridin-2-yl)-1H-1,2,3-triazol-5-yl)carbamate]",3150
